According to US12157713B2, “Conjugated oligoelectrolytes as antimicrobial agents” (Nanyang Technological University, priority 2018, dated 2024):

How the values were obtained:
[1] = test system: E. coli K12; experiment: MIC by broth microdilution against E. coli K12; assay type: cell-based; details: Escherichia coli, K12; broth microdilution, MHB, 18 hrs; read-out: MIC against E. coli K12
Protocol: (§1) The respective minimum inhibition concentration (MIC) of each COE molecule was determined using a broth microdilution method. Briefly, COEs were diluted via a 2-fold dilution series in 100 μL of either Muller Hinton Broth (MHB) for E. coli and S. aureus or Brain Heart Infusion Broth (BHI) for E. faecalis in a 96-well plate to achieve the desired final concentration. Subsequently, each well was inoculated with 100 μL of 1×10^6 colony forming units (CFU) mL^−1 of the respective microorganism in MHB for E. coli or BHI for E. faecalis to achieve an inoculum density of 5×10^5 CFU mL^−1. The plates were then incubated at 37° C. with shaking (200 rpm) for 18 hrs. […] The results were obtained in triplicate.
The MIC values of COE-D4, COE-D6 and COE-D8 against the reference strain E. coli K12, pathogenic E. coli UT189, and the Gram positive pathogen Enterococcus faecalis OG1RF were determined using a broth microdilution method as described in the general method above. The MICs for E. coli K12 were determined to be 128, 16, and 4 μg mL^−1 for COE-D4, COE-D6, and COE-D8, respectively (FIG. 5a). […] This is not surprising as these two organisms differ in the capsular polysaccharides that they expressed, which are known to hinder the uptake of antimicrobials and mitigate their potency (M. A. Campos, et al., Infect. Immun. 2004, 72, 7107-7114). A K-type capsid comprising α2-8-linked sialic acid is excreted by UT189 and is known to be an important virulence factor for this organism (C. Whitfield, et al., Mol. Microbiol. 1999, 31, 1307-1319; G. G. Anderson, et al., Infect. Immun. 2010, 78, 963-975).

[2] = test system: Staphylococcus aureus 25923; experiment: MIC against S. aureus 25923; assay type: cell-based
Protocol: as §1
The antimicrobial effects of COE-D62N and COE-D82N were also tested on the Gram-positive Staphylococcus aureus 25923 and Methicillin-resistant Staphylococcus aureus(MRSA BAA-40), in comparison with vancomycin (FIG. 5b).

[3] = test system: Staphylococcus aureus MRSA ATCC 43300; experiment: Single-dose growth inhibition, Sa; assay type: cell-based; details: 32 μg/mL single dose, n=2, read-out: Growth inhibition Sa
Protocol: (§2) Inhibition of bacterial growth was determined by measuring the absorbance at 600 nm (OD600), using a Tecan M1000 Pro monochromator plate reader. Growth inhibition was calculated for each well, relative to the reference growths determined from a negative control (media only) and positive control (bacteria without inhibitors) incubated in the same plate. A single dose of 32 μg/mL of COE (final concentration) was used for each test.
(§3) Percentage growth inhibition of an individual sample was calculated based on growth in a reference well determined from negative controls (media only) and positive controls (bacterial/fungal media without inhibitors). Negative inhibition values indicate that the growth rate (or OD600) is higher compared to the reference growth (bacteria/fungi only, set to 0% inhibition). The growth rates for all bacteria and fungi may vary at −/+10%, which were within the reported normal distribution of bacterial/fungal growth. Any significant variations (or outliers/hits) were identified by the modified Z-Score, and the active compounds were selected by a combination of inhibition values and Z-Score.
(§4) A M(i) value of >|2.5| (absolute) would classify the sample as outliers or hits. Active samples were denoted as compounds with inhibition values equal to or above 80% and absolute Z-Score above |2.5| for either replicate (n=2 on different plates). Partial active samples were denoted as compounds with inhibition values from 50% to <80%, or absolute Z-Score below |2.5|.

[4] = test system: Klebsiella pneumoniae MDR ATCC 700603; experiment: Single-dose growth inhibition, Kp; assay type: cell-based; details: ATCC700603, 32 μg/mL single dose, n=2, read-out: Growth inhibition Kp
Protocol: as §2, §3, §4

[5] = test system: Escherichia coli FDA control ATCC 25922; experiment: Single-dose growth inhibition, Ec; assay type: cell-based; details: ATCC25922, 32 μg/mL single dose, n=2, read-out: Growth inhibition Ec
Protocol: as §2, §3, §4

[6] = test system: Pseudomonas aeruginosa ATCC 27853; experiment: Single-dose growth inhibition, Pa; assay type: cell-based; details: ATCC27853, 32 μg/mL single dose, n=2, read-out: Growth inhibition Pa
Protocol: as §2, §3, §4

[7] = test system: Acinetobacter baumannii ATCC 19606; experiment: Single-dose growth inhibition, Ab; assay type: cell-based; details: ATCC19606, 32 μg/mL single dose, n=2, read-out: Growth inhibition Ab
Protocol: as §2, §3, §4

[8] = test system: Candida albicans ATCC 90028; experiment: Single-dose growth inhibition, Ca; assay type: cell-based; details: ATCC90028, 32 μg/mL single dose, n=2, read-out: Growth inhibition Ca
Protocol: (§5) Growth inhibition of C. albicans was determined by measuring the absorbance at 530 nm (OD530), while the growth inhibition of C. neoformans was determined by measuring the difference in absorbance between 600 and 570 nm (OD600-570), after the addition of resazurin (0.001 wt. % final concentration) and incubation at 35° C. for additional 2 hrs. The absorbance was measured using a Biotek Synergy HTX plate reader. The relative growth inhibition was calculated for each well, relative to that determined from a negative control (media only) and positive control (bacteria without inhibitors) on the same plate as references. A single dose of 32 μg/mL of COE (final concentration) was used for each test.
as §3, §4

[9] = test system: Cryptococcus neoformans var. grubii H99; ATCC 208821; experiment: Single-dose growth inhibition, Cn; assay type: cell-based; details: ATCC208821, 32 μg/mL single dose, n=2, read-out: Growth inhibition Cn
Protocol: as §5, §3, §4

[10] = test system: organism classes (Gram-negative, Gram-positive and fungi); experiment: Single-dose screening summary by organism class; assay type: cell-based; details: 32 μg/mL; 0 = no activity
Protocol: as §3
Z-Score analysis was carried out to investigate outliers or hits among the samples. The Z-Score was calculated based on the sample population using a modified Z-Score method which accounts for possible skewed sample population. The modified method uses median and MAD ([…]) instead of average and standard deviation, and a scaling factor (Iglewicz, B. & Hoaglin, D. C. Volume 16: How to Detect and Handle Outliers. The ASQC Basic Reference in Quality Control: Statistical Techniques, 1993). The equation to calculate the modified Z-Score value is as follow: […]
as §4

[11] = test system: Pseudomonas aeruginosa (PAO1) biofilm; experiment: Anti-biofilm assay (MBEC plate, crystal violet); assay type: cell-based; details: P. aeruginosa PAO1 biofilm, 1 hour challenge in M9GC
Protocol: Pseudomonas aeruginosa (PAO1) was grown in Luria-Bertani (LB) broth under shaking (200 rpm) at 37° C. for 16-18 hours. The overnight culture was diluted to 1:200 in M9GC media (M9 medium supplemented with glucose and casamino acids), and 200 μL of diluted culture was added to each well of MBEC plate (Innovotech, Canada). After incubating at 37° C. for 5 hours under shaking (200 rpm), biofilm was formed on the pegs of the MBEC plate. The pegs were then rinsed with 1× phosphate buffered saline (PBS) solution (200 μL per well), and exposed to a two-fold dilution series of COE in M9GC media (200 μL per well). The challenge plate was incubated at 37° C. for 1 hour under shaking (200 rpm), and then the pegs were washed using 200 μL PBS before being dipped into 180 μL 0.1 wt. % crystal violet aqueous solution. After incubating at room temperature for 15 minutes, the pegs were rinsed with PBS twice and transferred to a plate containing 200 μL absolute ethanol in each well for 15 minutes. The biofilm mass was quantified by measuring the absorption of crystal violet/ethanol solution at 550 nm. The minimum biofilm dispersal concentration (MBDC) values were determined as the lowest COE concentration at which biofilm attached on the peg was completely dispersed. The results were repeated in triplicate.

[12] = test system: E. faecalis; details: literature (Tran et al. 2013); cited from earlier work
[13] = test system: multidrug-resistant Gram-negative bacteria; details: literature (Falagas et al. 2005); cited from earlier work

Molecule: C[N+](C)(C)CC[N+](C)(C)CCCCCCOc1ccc(/C=C/c2ccc(/C=C/c3ccc(OCCCCCC[N+](C)(C)CC[N+](C)(C)C)cc3)cc2)cc1 [COE-T62]
- MIC [1]: 16 µg/mL
- MIC [2]: 2 µg/mL
- inhibition at 32 µg/mL [3]: > 80%
- inhibition at 32 µg/mL [4]: < 50%
- inhibition at 32 µg/mL [5]: > 80%
- inhibition at 32 µg/mL [6]: < 50%
- inhibition at 32 µg/mL [7]: < 50%
- inhibition at 32 µg/mL [8]: > 80%
- inhibition at 32 µg/mL [9]: > 80%
- Activity: number of organism classes the compound has been found active against [10]: 3
- Minimum biofilm dispersal concentration [11]: 8 µg/mL

Molecule: O=C(O)c1cn(C2CC2)c2cc(N3CCNCC3)c(F)cc2c1=O [Ciprofloxacin]
- Minimum biofilm dispersal concentration [11]: >512 µg/mL

Molecule: NC[C@H]1O[C@H](O[C@H]2[C@H](O)[C@@H](O[C@H]3O[C@H](CO)[C@@H](O)[C@H](N)[C@H]3O)[C@H](N)C[C@@H]2N)[C@H](N)C[C@@H]1O [Tobramycin]
- Minimum biofilm dispersal concentration [11]: >512 µg/mL

Molecule: CCCCCCCCCC(=O)N[C@@H](Cc1c[nH]c2ccccc12)C(=O)N[C@H](CC(N)=O)C(=O)N[C@@H](CC(=O)O)C(=O)N[C@@H]1C(=O)NCC(=O)N[C@@H](CCCN)C(=O)N[C@@H](CC(=O)O)C(=O)N[C@H](C)C(=O)N[C@@H](CC(=O)O)C(=O)NCC(=O)N[C@H](CO)C(=O)N[C@@H]([C@H](C)CC(=O)O)C(=O)N[C@@H](CC(=O)c2ccccc2N)C(=O)O[C@@H]1C [daptomycin]
- MIC against E. faecalis in brain heart infusion media [12]: around 3 μg mL^−1

Molecule: Colistin
- Minimum biofilm dispersal concentration [11]: 4 µg/mL
- MIC against multidrug-resistant Gram-negative bacteria (in general) [13]: ≤ 4 µg/mL

Molecule: Gentamicin
- Minimum biofilm dispersal concentration [11]: >512 µg/mL
